In patent US12018024B2, “Compounds and compositions for the treatment of cryptosporidiosis” (Novartis AG, priority 2020, dated 2024):

Key:
C. parvum PI(4)K = C. parvum PI(4)K (Cryptosporidium parvum, UniProt Q5CVD3); experiment: CpPI(4)K enzymatic assay (Transcreener ADP2 FP); assay type: biochemical
Source text: Baculovirus expression and purification of C. parvum phosphatidylinositol 4-kinase: The full-length coding sequence of C. parvum PI(4)K (cgd8_4500, 1114 amino acids) was codon-optimized for baculovirus expression, synthesized and cloned into pFastBac-HTb (Invitrogen 10584-027) in frame with the amino-terminal polyhistidine tag using the BamHI and HindIII restriction sites. Recombinant pFastBacHTb-CpPI(4)K bacmid clones were generated by site-specific transposition in E. coli DH10Bac (Invitrogen 10361-012). The bacmid sequence was confirmed by direct DNA sequencing to confirm a lack of mutations across the whole gene. The subsequent steps for bacmid isolation, transfection and selection of the recombinant viruses were performed according to the manufacturer's protocol (Bac-to-Bac system #10359, Invitrogen).
SF9 cells, cultured in […] serum-free medium, were transfected with recombinant baculovirus at 1/200 (v/v) and incubated at 27° C. for 72 h. The pellets were collected after centrifugation and re-suspended in cell lysis buffer (20 mM Tris-HCl, pH 7.5, 300 mM NaCl, 1 mM DTT, 20 mM imidazole, 0.01% Triton X-100 and 1× complete protease inhibitor cocktail without EDTA (Roche Diagnostics 04693116001)). The cell suspension was lysed by sonication and the clarified supernatant was loaded onto a 1 ml HisTrap affinity column (GE Healthcare) pre-equilibrated with buffer A (20 mM Tris-HCl, pH 7.5, 300 mM NaCl, 1 mM DTT, 20 mM Imidazole, and 1× complete protease inhibitor cocktail without EDTA). The column was washed with buffer B (buffer A containing 45 mM imidazole) and the bound protein of interest was eluted with buffer C (buffer A with 90 mM imidazole). The fractions containing CpPI(4)K were pooled, concentrated using Amicon Ultra-15 and purified by a gel-filtration column (Hi-Load 26/60 Superdex 200, GE Healthcare) equilibrated with 20 mM Tris, pH 7.5, 300 mM NaCl, 1 mM DTT and 1× protease inhibitor cocktail without EDTA. The concentrations of the purified protein (Mw 132.39 kda) was determined by using the protein molar extinction coefficient (ε280 nm=133,810 M^−1 cm^−1). Aliquots were flash frozen in liquid nitrogen and immediately stored at −80° C.
PI(4)K enzymatic Assay The CpPI(4)K enzymatic assay was performed as described earlier with a some modifications (McNamara et al., 2013). Briefly, L-α-phosphatidylinositol (Avanti Polar Lipid 840046), dissolved in 3% n-octylglucoside (Roche Diagnostics 10634425001), was used as the lipid substrate for the PI(4)K activity assay. CpPI(4)K was assayed using Transcreener ADP2 FP detection kit (BellBrook 3010) in a black, solid 384-well plate (Corning 3575). The final assay volume was 10 μl and contained 3 nM of the respective CpPI(4)K construct in 10 mM Tris, pH 7.5, 1 mM DTT, 3 μM ATP, 5 mM Mn2+, 0.05% Triton X-100 and 10 μM phosphatidylinositol/octylglucoside. The enzyme reaction was performed for 50 minutes at room temperature and was stopped by adding 10 μl of detection mix containing 1× stop buffer (50 mM HEPES, pH7.5, 400 mM NaCl, 20 mM EDTA, and 0.02% Brij-35), 2 nM AMP Alexa Fluor 633 tracer, and 20 μg ml^−1 ADP antibody. Fluorescence polarization measurements were performed on the Infinite M1000 plate reader (Tecan) with λex=635 nm and λem=680 nm (20-nm bandwidth). IC50 values were calculated using Graphpad Prism software.

Cryptosporidium parvum = experiment: Cytopathic effect (CPE) based assay, C. parvum-infected HCT-8 cells; assay type: cell-based; details: HCT-8, 48 h, read-out: (b) C.p.* CPE EC50 (μM)
Method: (§1) Human ileocecal colorectal adenocarcinoma cells (HCT-8 [HRT-18] ATCC, CCL-34) were maintained in T-175 flasks (Corning, 431080) in complete growth medium (RPMI-1640 medium (Gibco, 11875) supplemented with 10% heat-inactivated horse serum (Gibco, 26050), 1× MEM non-essential amino acids (Gibco, 11140), 10 mM HEPES (Gibco, 15630), 100 units/mL penicillin, and 100 units/mL streptomycin) at 37° C. and 5% CO2 in a humidified incubator. Cultures were passaged twice weekly using 10 mL of 1× Phosphate-Buffered Saline (PBS) without Ca^2+ and Mg^2+ (Gibco, 20012) for washing and 3-5 mL per T-175 flask of TrypLE Express Enzyme (Gibco, 12604) for dissociation of adherent cells.
Cryptosporidium parvum oocysts purchased from the Sterling Laboratory, University of Arizona (Iowa isolate) were purified from infected calf feces using discontinuous sucrose and cesium chloride centrifugation gradients and stored in PBS solution containing 0.01% Tween 20, 100 units/mL penicillin and 100 units/mL gentamicin.
(§2) Excystaion and infection: Excystation and infection protocols were developed following established methods with some modifications (Gut & Nelson, 1999, Upton et al., 1995, Bessoff et al., 2013). Briefly, oocysts were primed in 1 mL of 10 mM hydrochloric acid in 1× Hank's Balanced Salt Solution (HBSS) (Gibco, 14025) for 10 minutes with agitation at 1000 rpm, 37° C. on an Eppendorf thermomixer, then washed twice with 1 mL of room temperature non-acidic 1× HBSS by centrifugation at 13,000 rpm for 3 minutes at 25° C. Primed oocysts were further excysted at a concentration of 1×10^6 oocysts/μL in parasite infection medium consisting of a pre-warmed and pre-gassed 1:1 formulation of Leibovitz's L-15 medium (Gibco, 11415) and UltraCULTURE medium (Lonza, 12-725F) supplemented with 2 mM sodium taurocholate (Sigma, 86339-1), 10% heat-inactivated horse serum, and 200 μM L-ascorbic acid (Sigma, 95210) at 25° C. for 10 minutes. HCT-8 monolayer cells were infected with excysted cryptosporidium at a specified multiplicity of infection (MOI). All dilutions for subsequent assays were performed in parasite infection medium without sodium taurocholate. Pre-excysted oocysts were enumerated microscopically using a C-Chip disposable hemocytometer (NanoEnTek, DHC-N01).
Compound and assay plate preparation: Compound powders were dissolved in neat DMSO (Fisher, D4121) to 10 mM and stored at 4° C. prior to dilution into source plates. Dilutions were carried out using a Microlab STAR liquid handler (Hamilton) to obtain compound source plates containing the ten-point or eight-point three fold dilutions starting from 10 mM in duplicates. Source plates were stored at 4° C. prior to spotting into assay plates. Before administration, all compound source plates were equilibrated to room temperature. A specified volume of compounds from source plate were spotted to assay plate using an Echo Acoustic liquid handler (LABCYTE, 550) so that the final DMSO concentration was less than 0.5%. Each assay plate a specified number of DMSO-treated negative control wells and a well-studied potent active compound at 100 nM as positive control. As a quality control, all positive and negative-control wells were used to calculate a Z′-value and signal to noise ratio (S:N) for each plate.
Cryptosporidium spp are obligate-intracellular parasites that infect intestinal epithelial cells and the host cell is killed upon parasite egress. […] The loss of epithelial cells is due to both rapid parasite invasion/multiplication/egress and also pro-inflammatory immune response (Adams et al., 1994, Griffiths et al., 1994). We have observed a consistent cytopathic effect (CPE) in HCT-8 cells with C. spp infection the loss of viability of the host cells using CellTiter-Glo reagent.
Confluent HCT-8 cells in T-175 flasks were directly infected with excysted oocysts at an MOI (host to parasite) of 1:2 for C. parvum and 1:4 for C. hominis. […]

H.s. PI(4)K = H.s. PI(4)K (Homo sapiens, UniProt Q9UBF8); experiment: H.s. PI(4)K IC50; assay type: biochemical; details: read-out: (d) H.s.* PI(4)K IC50
Sequence of H.s. PI(4)K (Q9UBF8 2-816 limits assumed): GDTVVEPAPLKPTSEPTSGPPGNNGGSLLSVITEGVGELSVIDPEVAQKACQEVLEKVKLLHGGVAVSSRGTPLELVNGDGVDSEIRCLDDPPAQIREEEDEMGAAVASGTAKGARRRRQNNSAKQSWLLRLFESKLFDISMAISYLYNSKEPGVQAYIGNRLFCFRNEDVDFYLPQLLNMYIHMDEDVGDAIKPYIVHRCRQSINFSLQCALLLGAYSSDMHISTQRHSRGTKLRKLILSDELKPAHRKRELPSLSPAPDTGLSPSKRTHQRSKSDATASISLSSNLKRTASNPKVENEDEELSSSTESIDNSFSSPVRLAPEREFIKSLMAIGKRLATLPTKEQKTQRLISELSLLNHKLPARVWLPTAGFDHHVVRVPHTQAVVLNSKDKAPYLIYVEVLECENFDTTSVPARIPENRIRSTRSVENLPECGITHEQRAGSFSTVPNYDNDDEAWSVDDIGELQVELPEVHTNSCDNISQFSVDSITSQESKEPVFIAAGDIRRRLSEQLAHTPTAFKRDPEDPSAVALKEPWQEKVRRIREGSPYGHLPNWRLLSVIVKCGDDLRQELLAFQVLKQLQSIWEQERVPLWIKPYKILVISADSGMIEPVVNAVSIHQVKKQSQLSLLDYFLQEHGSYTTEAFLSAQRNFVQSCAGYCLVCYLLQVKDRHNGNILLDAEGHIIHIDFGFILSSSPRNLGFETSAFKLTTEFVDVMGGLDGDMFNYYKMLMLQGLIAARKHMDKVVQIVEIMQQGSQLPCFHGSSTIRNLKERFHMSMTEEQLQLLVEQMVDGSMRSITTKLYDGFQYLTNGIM

Cryptosporidium hominis = experiment: Cytopathic effect (CPE) based assay, C. hominis-infected HCT-8 cells; assay type: cell-based; details: HCT-8, 48 h, read-out: (c) C.h.* CPE EC50 (μM)
Method: as §1
Cryptosporidium hominis oocysts were purchased from the Tufts University Cummings School of Veterinary Medicine (courtesy of Dr. Saul Tzipori). C. hominis oocysts were purified from infected gnotobiotic piglet feces and stored in PBS solution containing 0.01% Tween-20, 100 units/mL penicillin and 100 units/mL gentamicin. C. parvum and C. hominis oocysts less than three months old from the date of shedding were used in infection experiments.
as §2
Compound and assay plate preparation: Compound powders were dissolved in neat DMSO (Fisher, D4121) to 10 mM and stored at 4° C. prior to dilution into source plates. Dilutions were carried out using a Microlab STAR liquid handler (Hamilton) to obtain compound source plates containing the ten-point or eight-point three fold dilutions starting from 10 mM in duplicates. […]

Sequence of C. parvum PI(4)K (Q5CVD3 entry or part of it): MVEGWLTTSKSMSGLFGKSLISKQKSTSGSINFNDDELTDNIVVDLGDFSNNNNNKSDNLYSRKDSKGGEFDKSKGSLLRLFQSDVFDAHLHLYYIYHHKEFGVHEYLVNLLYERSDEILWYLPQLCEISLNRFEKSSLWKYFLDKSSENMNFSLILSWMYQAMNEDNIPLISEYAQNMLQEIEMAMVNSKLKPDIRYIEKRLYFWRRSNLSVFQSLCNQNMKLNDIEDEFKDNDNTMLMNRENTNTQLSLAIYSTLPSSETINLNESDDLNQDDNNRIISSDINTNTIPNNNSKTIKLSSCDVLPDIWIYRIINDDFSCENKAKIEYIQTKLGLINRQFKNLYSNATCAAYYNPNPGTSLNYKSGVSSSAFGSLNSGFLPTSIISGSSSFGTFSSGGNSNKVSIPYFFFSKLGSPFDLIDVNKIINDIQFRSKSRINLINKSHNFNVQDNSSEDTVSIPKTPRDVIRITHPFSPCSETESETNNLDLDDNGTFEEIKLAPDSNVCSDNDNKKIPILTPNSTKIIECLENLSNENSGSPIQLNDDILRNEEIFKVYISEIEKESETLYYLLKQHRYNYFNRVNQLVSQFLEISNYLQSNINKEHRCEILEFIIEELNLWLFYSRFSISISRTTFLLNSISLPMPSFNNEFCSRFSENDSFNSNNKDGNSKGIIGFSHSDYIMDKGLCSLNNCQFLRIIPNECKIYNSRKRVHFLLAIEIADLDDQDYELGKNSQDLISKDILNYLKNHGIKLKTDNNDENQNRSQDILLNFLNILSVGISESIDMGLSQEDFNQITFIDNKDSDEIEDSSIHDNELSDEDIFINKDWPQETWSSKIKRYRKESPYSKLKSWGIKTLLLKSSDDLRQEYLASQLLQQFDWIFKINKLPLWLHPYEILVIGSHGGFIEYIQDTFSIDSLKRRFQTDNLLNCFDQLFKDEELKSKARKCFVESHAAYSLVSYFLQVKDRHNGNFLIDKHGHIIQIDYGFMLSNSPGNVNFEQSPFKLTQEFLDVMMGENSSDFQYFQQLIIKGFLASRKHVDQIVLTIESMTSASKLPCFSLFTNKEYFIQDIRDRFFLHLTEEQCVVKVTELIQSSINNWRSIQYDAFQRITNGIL

Compound | IC50 (C. parvum PI(4)K) [nM] | EC50 (Cryptosporidium parvum) [µM] | IC50 (H.s. PI(4)K) [nM] | EC50 (Cryptosporidium hominis) [µM]
COC(=O)c1cc(N(C)C(=O)c2ccn3ncc(-c4ccc(C(N)=O)cc4)c3c2)ccc1OC(F)(F)F [Example 1.25, Methyl 5-(3-(4-carbamoylphenyl)-N-methylpyrazolo[1,5-a]pyridine-5-carboxamido)-2-(trifluoromethoxy)benzoate] | < 100 | 0.1 to 1 | > 1000 | –
COC(=O)c1cc(NC(=O)c2ccn3ncc(-c4ccc(C(N)=O)cc4)c3c2)ccc1Cl [Example 1.23, Methyl 5-(3-(4-carbamoylphenyl)pyrazolo[1,5-a]pyridine-5-carboxamido)-2-chlorobenzoate] | > 1000 | > 1 | > 1000 | –
CN(C(=O)c1ccn2ncc(-c3ccc(C(N)=O)cc3)c2c1)c1ccc(Cl)c(C(=O)OCCN2CCOCC2)c1 [Example 1.08, 2-Morpholinoethyl 5-(3-(4-carbamoylphenyl)-N-methylpyrazolo[1,5-a]pyrdine-5-carboxamido)-2-chlorobenzoate] | < 100 | 0.1 to 1 | > 1000 | –
COC(=O)c1cc(N(C)C(=O)c2ccn3ncc(-c4ccc(C(N)=O)cc4C)c3c2)ccc1Cl [Example 1.21, Methyl 2-chloro-5-(N-methyl-3-(2-methyl-4-(carbamoyl)phenyl)pyrazolo[1,5-a]pyridine-5-carboxamido)benzoate] | < 100 | 0.1 to 1 | > 1000 | –
CNC(=O)c1ccc(-c2cnn3ccc(C(=O)N(C)c4ccc(Cl)c(C(=O)OCCN5CCOCC5)c4)cc23)cc1 [Example 1.19, 2-Morpholinoethyl 2-chloro-5-(N-methyl-3-(4-(methylcarbamoyl)phenyl)pyrazolo[1,5-a]pyridine-5-carboxamido)benzoate] | < 100 | 0.1 to 1 | 100 to 1000 | –
COC(=O)c1cc(N(C)C(=O)c2ccn3ncc(-c4ccc(C(N)=O)cc4)c3c2)ccc1C#N [Example 1.27, Methyl 5-(3-(4-carbamoylphenyl)-N-methylpyrazolo[1,5-a]pyridine-5-carboxamido)-2-cyanobenzoate] | < 100 | < 0.1 | > 1000 | –
CCOC(=O)OC(C)OC(=O)c1cc(N(C)C(=O)c2ccn3ncc(-c4ccc(C(N)=O)cc4)c3c2)ccc1Cl (racemic) [Example 1.14, rac-1-((Ethoxycarbonyl)oxy)ethyl 5-(3-(4-carbamoylphenyl)-N-methylpyrazolo[1,5-a]pyridine-5-carboxamido)-2-chlorobenzoate] | 100 to 1000 | > 1 | > 1000 | –
CNC(=O)c1ccc(-c2cnc3cnc(C(=O)N(C)c4ccc(Cl)c(C(=O)OC)c4)cn23)cc1 [Example 2.1, Methyl 2-chloro-5-(N-methyl-3-(4-(methylcarbamoyl)phenyl)imidazo[1,2-a]pyrazine-6-carboxamido)benzoate] | < 100 | 0.1 to 1 | > 1000 | –
CNC(=O)c1ccc(-c2cnn3ccc(C(=O)N(C)c4ccc(Cl)c(C(=O)OC)c4)cc23)cc1 [Example 1.16, Methyl 2-chloro-5-(N-methyl-3-(4-(methylcarbamoyl)phenyl)pyrazolo[1,5-a]pyridine-5-carboxamido)benzoate] | < 100 | < 0.1 | 100 to 1000 | < 0.1
CNC(=O)c1ccc(-c2cnn3ccc(C(=O)N(C)c4ccc(Cl)c(C(=O)OC)c4)cc23)cc1C [Example 1.22] | 100 to 1000 | > 1 | > 1000 | –
CN(C(=O)c1ccn2ncc(-c3ccc(C(N)=O)cc3)c2c1)c1ccc(Cl)c(C(=O)O)c1 [Example 1.03, 5-(3-(4-Carbamoylphenyl)-N-methylpyrazolo[1,5-a]pyridine-5-carboxamido)-2-chlorobenzoic acid] | < 100 | > 1 | 100 to 1000 | –
CNC(=O)c1ccc(-c2cnn3ccc(C(=O)N(C)c4ccc(Cl)c(C(=O)O)c4)cc23)cc1 [Example 1.18, 2-Chloro-5-(N-methyl-3-(4-(methylcarbamoyl)phenyl)pyrazolo[1,5-a]pyridine-5-carboxamido)benzoic acid] | < 100 | > 1 | 100 to 1000 | –
